US12516038B2, “Inhibitors of antigen presentation by HLA-DR” (Janssen Pharmaceutica NV, priority 2020, dated 2026)

Assays:
[1] = test system: human peripheral blood CD4+ helper T cells; assay: Pan-CD4+ T cell activation (off-target assay); type: cell-based; conditions: Homo sapiens, T-cell, 24 h, anti-CD3/anti-CD28 stimulation, IL-2 production by ELISA
Excerpt: The counter-screening was made through an HLA-DR-independent assay (Pan-CD4+ T cell activation assay), i.e., TCR-stimulated pan-T cell activation assay, and consists of activating T cell directly with agonistic antibody targeting the T cell receptor. The lack of inhibition in the counter-screening assay reflects that the inhibition of T cell activation in the HLA-DR4 restricted peptide-specific T cell based assay with the small molecule inhibitors is due to impaired antigen presentation on HLA-DR to the T cell and not due to a direct inhibition of the T cell function by an off-target mechanism (i.e., independently of targeting HLA-DR).
Pan-CD4+ T Cell Activation
Compounds were tested using a pan-T cell activation assay. In this assay, anti-human CD3 antibody (BD Pharmingen #55336) pre-coated at 1 μg/mL to a 96-well assay plate and 1 μg/ml soluble anti-human CD28 (EBioscience #16-0289-85) antibody were used for activating human peripheral blood CD4+ helper T cells (no HLA-DR-expressing APC were present in this assay format), in the presence of compounds (or vehicle control) for 24 hrs. IL-2 production was measured in the culture supernatant by ELISA (Human IL-2 Duo Set ELISA #DY202 from R&D Systems).

[2] = test system: HLA-DR4 restricted mouse T cell hybridoma line (DR4.CII.36.8) with HLA-DRB1*04:01-expressing Boleth cells; assay: HLA-DR4-restricted peptide-specific T cell-based assay (hybridoma assay); conditions: Mus musculus, T-cell, 6 h, inhibition of IL-2 production, CII259-273 peptide presented by Boleth cells
Procedure, shortened: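 IC50 values derive from 4-parameter logistic fits of IL-2 AlphaLISA signal over 8-point duplicate titrations. Compound and HLA-DRB1*04:01 Boleth APCs were preincubated 1 h, 37° C., before adding CII259-273-restricted DR4.CII.36.8 hybridoma cells with peptide for 6 h at 37° C., in DMEM/1% FCS.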

[3] = target: HLA-DRB1*0401 (Homo sapiens (Human), UniProt P01903+P01911, A100K/A169T/DEL228-266/F76Y/I96L/K127E/L162R/M171V/N62H/P40V/Q125Y/R42H/S133A/S149N/S66Y/V115G/V209L/W38E); assay: HLA-DR4 HTRF assay; type: binding; conditions: inhibition of loading of Alexa Fluor 647-labeled Cit-CII peptide onto HLA-DR4 (CLIP cleaved)
Procedure, shortened: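 HLA-DRB1*04:01 construct (α/β fused to human Fc, CLIP pre-cleaved by HRV3C overnight at 4° C) at 3 nM was preincubated 45 min with compound and 1 nM anti-Fc-Tb donor, then 40 nM Alexa647-Cit-CII1236-1249 peptide added. After 90 min at 37° C, the 665/620 nm HTRF ratio gave % inhibition; IC50 by nonlinear regression.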

SMILES | IC50 [1] [µM] | IC50 [2] [µM] | IC50 [3] [µM]
Cc1c(O[C@H](c2ccc(C(N)=O)cc2)c2cccc(C#N)c2)c(F)cc2c1OCCC2=O (single isomer, unassigned) [Example 92a, (*R)-4-((3-cyanophenyl)((6-fluoro-8-methyl-4-oxochroman-7-yl)oxy)methyl)benzamide] | 9.9 | 0.31 | 0.3
O=C1CCOc2cc(OC(c3ccccc3)c3ccncc3)ccc21 (racemic) [Example 114, (R,S)-7-(Phenyl(pyridin-4-yl)methoxy)chroman-4-one] | > 10 | 11 | 3.4
Cc1c(O[C@H](c2ccc(C(N)=O)cc2)c2cccc(F)c2)ccc2c1OCCC2=O (single isomer, unassigned) [Example 67a, (*R)-4-((3-Fluorophenyl)((8-methyl-4-oxochroman-7-yl)oxy)methyl)benzamide] | 15 | 2.7 | 3.1
Cc1cc([C@H](Oc2ccc3c(c2)OCCC3=O)c2ccc(C(N)=O)cc2)ccn1 (single isomer, unassigned) [Example 15a, (*R)-4-((2-Methylpyridin-4-yl)((4-oxochroman-7-yl)oxy)methyl)benzamide] | > 15 | 0.61 | 0.44
NC(=O)c1ccc([C@H](Oc2ccc3c(c2)OCCC3=O)c2ccnc(C(F)(F)F)c2)cc1 (single isomer, unassigned) [Example 18b, (*S)-4-(((4-oxochroman-7-yl)oxy)(2-(trifluoromethyl)pyridin-4-yl)methyl)benzamide] | 9.9 | 12 | 0.95
Cc1c(O[C@@H](c2ccc(C(N)=O)cc2)c2ccc(Cl)cn2)ccc2c1OCCC2=O (single isomer, unassigned) [Example 62b, (*S)-4-((5-chloropyridin-2-yl)((8-methyl-4-oxochroman-7-yl)oxy)methyl)benzamide] | 2.7 | 1.8 | 1.4
CC[C@H]1CC(=O)c2ccc(OCc3ccnc(C)c3)cc2O1 (single isomer, unassigned) [Example 118b, (*S)-2-ethyl-7-((2-methylpyridin-4-yl)methoxy)chroman-4-one] | > 15 | 12 | 0.99
Cc1c(O[C@H](c2ccncc2)c2cccc(CNC(N)=O)c2)ccc2c1OCCC2=O (single isomer, unassigned) [Example 81b, (*S)-1-(3-(((8-methyl-4-oxochroman-7-yl)oxy)(pyridin-4-yl)methyl)benzyl)urea] | > 15 | 1.3 | 0.61
CNC(=O)c1ccc([C@@H](Oc2ccc3c(c2)OCCC3=O)c2ccncc2)cc1 (single isomer, unassigned) [Example 34a, (*R)—N-methyl-4-(((4-oxochroman-7-yl)oxy)(pyridin-4-yl)methyl)benzamide] | 9.9 | 12 | 0.8
CC(C)c1c(O[C@@H](c2ccncc2)c2ccc(C(N)=O)cc2)ccc2c1OCCC2=O (single isomer, unassigned) [Example 75a, (*R)-4-(((8-isopropyl-4-oxochroman-7-yl)oxy)(pyridin-4-yl)methyl)benzamide] | 4.7 | 0.062 | 0.6
NC(=O)c1ccc([C@H](Oc2ccc3c(c2)OCCC3=O)c2ccnc(-c3ccccc3)c2)cc1 (single isomer, unassigned) [Example 26b, (*S)-4-(((4-oxochroman-7-yl)oxy)(2-phenylpyridin-4-yl)methyl)benzamide] | 15 | 1.6 | 88
Cc1cc2c(cc1O[C@@H](c1ccncc1)c1ccc(C(N)=O)cc1)OCCC2=O (single isomer, unassigned) [Example 49a, (*R)-4-(((6-Methyl-4-oxochroman-7-yl)oxy)(pyridin-4-yl)methyl)benzamide] | 9.9 | 0.2 | 0.57
O=C1CCOc2cc(O[C@@H](c3ccncc3)c3ccccc3F)ccc21 (single isomer, unassigned) [Example 1b, (*S)-7-((2-Fluorophenyl)(pyridin-4-yl)methoxy)chroman-4-one] | 3.1 | 3.1 | 1.2
CC(C)c1cc2c(cc1O[C@@H](c1ccncc1)c1ccc(C(N)=O)cc1)OCCC2=O (single isomer, unassigned) [Example 76a, (*R)-4-(((6-isopropyl-4-oxochroman-7-yl)oxy)(pyridin-4-yl)methyl)benzamide] | 2.2 | 0.32 | 0.65
Cc1c(O[C@H](c2ccc(Cl)cc2)c2ccc(C(N)=O)nc2)ccc2c1OCCC2=O (single isomer, unassigned) [Example 64a, (*R)-5-((4-chlorophenyl)((8-methyl-4-oxochroman-7-yl)oxy)methyl)picolinamide] | 2 | 6 | 1.7
CN(C)C(=O)c1ccc([C@@H](Oc2ccc3c(c2)OCCC3=O)c2ccncc2)cc1 (single isomer, unassigned) [Example 72a, (*R)—N,N-dimethyl-4-(((4-oxochroman-7-yl)oxy)(pyridin-4-yl)methyl)benzamide] | 9.9 | 6.3 | 0.84
Cc1c(O[C@H](c2ccc(C(N)=O)cc2)c2ccc(Cl)cn2)ccc2c1OCCC2=O (single isomer, unassigned) [Example 62a, (*R)-4-((5-chloropyridin-2-yl)((8-methyl-4-oxochroman-7-yl)oxy)methyl)benzamide] | 4.7 | 8.5 | 1.5
NC(=O)c1ccc([C@H](Oc2ccc3c(c2)OCCC3=O)c2ccnc3ccccc23)cc1 (single isomer, unassigned) [Example 22b, (*S)-4-(((4-oxochroman-7-yl)oxy)(quinolin-4-yl)methyl)benzamide] | 15 | 2.2 | 1.2
NC(=O)c1ccc([C@@H](Oc2ccc3c(c2F)OCCC3=O)c2ccncc2)cc1 (single isomer, unassigned) [Example 50a, (*R)-4-(((8-Fluoro-4-oxochroman-7-yl)oxy)(pyridin-4-yl)methyl)benzamide] | 9.9 | 0.24 | 1.9
C[C@H]1CC(=O)c2ccc(O[C@@H](c3ccncc3)c3ccc(C(N)=O)cc3)cc2O1 (single isomer, unassigned) [Example 39c, 4-((*R)—(((*S)-2-Methyl-4-oxochroman-7-yl)oxy)(pyridin-4-yl)methyl)benzamide] | 9.9 | 1.1 | 0.99
CC(C)c1c(O[C@H](c2ccncc2)c2ccc(C(N)=O)cc2)ccc2c1OCCC2=O (single isomer, unassigned) [Example 75b, (*S)-4-(((8-isopropyl-4-oxochroman-7-yl)oxy)(pyridin-4-yl)methyl)benzamide] | 9.3 | 0.18 | 0.63
Cc1cc([C@H](Oc2c(F)cc3c(c2C)OCCC3=O)c2ccc(C(N)=O)cc2)cc(C)n1 (single isomer, unassigned) [Example 94a, (*R)-4-((2,6-dimethylpyridin-4-yl)((6-fluoro-8-methyl-4-oxochroman-7-yl)oxy)methyl)benzamide] | 9.9 | 0.047 | 0.22
NC(=O)c1ccc([C@@H](Oc2ccc3c(c2)OCCC3=O)c2ccncc2)cc1 (single isomer, unassigned) [Example 11a, (*R)-4-(((4-oxochroman-7-yl)oxy)(pyridin-4-yl)methyl)benzamide] | > 15 | 0.46 | 0.72
N#Cc1c(O[C@H](c2ccncc2)c2ccc(C(N)=O)cc2)ccc2c1OCCC2=O (single isomer, unassigned) [Example 78b, (*S)-4-(((8-cyano-4-oxochroman-7-yl)oxy)(pyridin-4-yl)methyl)benzamide] | 15 | 0.47 | 0.45
CCc1cc(O[C@@H](c2ccncc2)c2ccc(C(N)=O)cc2)cc2c1C(=O)CCO2 (single isomer, unassigned) [Example 99a, (*R)-4-(((5-ethyl-4-oxochroman-7-yl)oxy)(pyridin-4-yl)methyl)benzamide] | 3.1 | 0.59 | 42
